Among the test systems are Escherichia coli BL21; Escherichia coli; Bacillus cereus; Staphylococcus aureus; Bacillus anthracis.
Common to all, as to test: ≥ marks a high value that may be exact or a test limit, other limits are often not marked, values filed in µg/mL are converted to µM
Experiment [1] relates to Pseudomonas aeruginosa PAO1.
In experiment [2] the test system is Streptococcus pyogenes M1T1 5448.
The subject of experiment [3] is Staphylococcus aureus USA 300.
Experiment [4] concerns Candida albicans NCYC 1467.
The subject of experiment [5] is Pseudomonas aeruginosa ATCC 27853.
Experiment [6] deals with Staphylococcus aureus NCTC 12493.
Experiment [7] concerns Escherichia coli NCTC 10418.
The test system of experiment [8] is Staphylococcus aureus ATCC 43300.
For experiment [9], the system named is Staphylococcus aureus NCTC 10788.

Structures are written as SMILES. In brackets after ≈: the same amount, converted by molar mass.

`CC[C@H](C)[C@H](NC(=O)[C@H](Cc1ccccc1)NC(=O)[C@H](C)NC(=O)[C@H](CCCCN)NC(=O)[C@H](CCCCN)NC(=O)CNC(=O)[C@H](CCCN=C(N)N)NC(=O)[C@H](CCCCN)NC(=O)[C@H](CCCN=C(N)N)NC(=O)[C@H](CC(C)C)NC(=O)[C@H](Cc1ccc(O)cc1)NC(=O)[C@H](CCC(=O)O)NC(=O)[C@H](CCCCN)NC(=O)[C@H](CC(C)C)NC(=O)[C@H](CCC(=O)O)NC(=O)[C@H](CC(C)C)NC(=O)[C@@H](NC(=O)[C@H](CC(C)C)NC(=O)[C@H](CCCCN)NC(=O)[C@H](CCC(N)=O)NC(=O)[C@H](CCCN=C(N)N)NC(=O)CNC(=O)[C@H](C)N)[C@@H](C)O)C(=O)N[C@@H](C)C(=O)N[C@@H](Cc1c[nH]c2ccccc12)C(=O)O` [AGRQKLTLELKEYLRKRGKKAFIAW]: the MIC is 128 µM (≈ 385 µg/mL) in experiment [1], 16 µM (≈ 48.1 µg/mL) in the experiment with Escherichia coli BL21 and 4 µM (≈ 12 µg/mL) in experiment [2].

Turning to `CC[C@H](C)[C@H](NC(=O)[C@H](CCC(=O)O)NC(=O)[C@H](CCCN=C(N)N)NC(=O)[C@H](CCCN=C(N)N)NC(=O)[C@H](CC(C)C)NC(=O)[C@H](Cc1ccc(O)cc1)NC(=O)[C@H](C)NC(=O)[C@H](CCCCN)NC(=O)[C@@H](NC(=O)[C@@H](NC(=O)[C@H](CCC(N)=O)NC(=O)[C@H](CCCN=C(N)N)NC(=O)CNC(=O)[C@H](C)N)[C@@H](C)O)[C@@H](C)CC)C(=O)N[C@@H](CCCN=C(N)N)C(=O)N[C@@H](CCCCN)C(=O)N[C@@H](CCCN=C(N)N)C(=O)NCC(=O)N[C@@H](CCCN=C(N)N)C(=O)N[C@@H](CCCCN)C(=O)N[C@@H](C)C(=O)N[C@H](C(=O)N[C@H](C(=O)N[C@@H](C)C(=O)N[C@@H](Cc1c[nH]c2ccccc12)C(=O)O)[C@@H](C)CC)C(C)C` [AGRQTIKAYLRREIRKRGRKAVIAW], the MIC in experiment [1] was 16 µM (≈ 48 µg/mL); against Escherichia coli BL21, 8 µM (≈ 24 µg/mL); in [2], 8 µM (≈ 24 µg/mL).

For `CC[C@H](C)[C@H](NC(=O)[C@H](Cc1c[nH]c2ccccc12)NC(=O)[C@H](CCC(N)=O)NC(=O)[C@H](CCCN=C(N)N)NC(=O)CNC(=O)[C@H](C)N)C(=O)N[C@@H](C)C(=O)N[C@@H](CCCCN)C(=O)N[C@@H](Cc1ccc(O)cc1)C(=O)N[C@@H](CC(C)C)C(=O)N[C@@H](CCCN=C(N)N)C(=O)N[C@@H](CCCN=C(N)N)C(=O)N[C@@H](CCC(=O)O)C(=O)N[C@H](C(=O)N[C@@H](CCCN=C(N)N)C(=O)N[C@@H](CCCCN)C(=O)N[C@@H](CCCN=C(N)N)C(=O)NCC(=O)N[C@@H](CCCN=C(N)N)C(=O)N[C@@H](CCCCN)C(=O)N[C@@H](C)C(=O)N[C@H](C(=O)N[C@H](C(=O)N[C@@H](C)C(=O)N[C@@H](Cc1c[nH]c2ccccc12)C(=O)O)[C@@H](C)CC)C(C)C)[C@@H](C)CC` [AGRQWIAKYLRREIRKRGRKAVIAW], the MIC in [3] was at least 128 µM; in experiment [1], 16 µM (≈ 49.3 µg/mL); against Escherichia coli BL21 it was 2 µM (≈ 6.17 µg/mL); in [2] it was 4 µM (≈ 12.3 µg/mL).

For the compound `CC[C@H](C)[C@H](NC(=O)[C@H](CCCN=C(N)N)NC(=O)CNC(=O)[C@@H](NC(=O)[C@H](CCCCN)NC(=O)[C@H](CCCN=C(N)N)NC(=O)[C@@H](NC(=O)[C@H](Cc1ccc(O)cc1)NC(=O)[C@H](CCCN=C(N)N)NC(=O)[C@H](CCCN=C(N)N)NC(=O)[C@H](CC(C)C)NC(=O)[C@H](CCC(=O)O)NC(=O)[C@H](CCCCN)NC(=O)[C@H](C)NC(=O)[C@@H](NC(=O)[C@H](CCCN=C(N)N)NC(=O)[C@H](CC(N)=O)NC(=O)[C@@H](NC(=O)[C@H](CCCCN)NC(=O)[C@H](C)N)[C@@H](C)O)[C@@H](C)CC)[C@@H](C)CC)C(C)C)C(=O)N[C@@H](C)C(=O)N[C@@H](CCCN=C(N)N)C(=O)N[C@@H](CCCCN)C(=O)N[C@@H](C)C(=O)N[C@@H](Cc1c[nH]c2ccccc12)C(=O)O` [AKTNRIAKELRRYIRKVGRIARKAW], the MIC in experiment [1] was 8 µM (≈ 24.4 µg/mL); with Escherichia coli BL21 it was 0.25 µM (≈ 0.764 µg/mL); in [2], 0.5 µM (≈ 1.53 µg/mL).

In the case of `CSCC[C@H](NC(=O)[C@H](CC(=O)O)NC(=O)[C@@H](NC(=O)[C@@H](NC(=O)[C@H](C)NC(=O)[C@H](CC(N)=O)NC(=O)[C@H](CC(C)C)NC(=O)[C@@H](NC(=O)[C@H](C)NC(=O)[C@H](CCCCN)NC(=O)CNC(=O)[C@H](C)NC(=O)[C@H](C)NC(=O)[C@H](CCCCN)NC(=O)CNC(=O)[C@@H](NC(=O)[C@H](CC(N)=O)NC(=O)[C@H](CCCCN)NC(=O)[C@H](CC(C)C)NC(=O)[C@H](CC(C)C)NC(=O)[C@@H](NC(=O)[C@H](CCCCN)NC(=O)[C@H](Cc1c[nH]c2ccccc12)NC(=O)[C@H](CC(C)C)NC(=O)[C@H](C)N)[C@@H](C)O)C(C)C)C(C)C)C(C)C)[C@@H](C)O)C(=O)N[C@H](C(=O)N[C@@H](CC(N)=O)C(=O)N[C@@H](CCC(N)=O)C(N)=O)C(C)C` [ALWKTLLKNVGKAAGKAVLNAVTDMVNQ], the MIC in [4] stood at 5.42 µM (≈ 16 µg/mL); in experiment [5], 5.42 µM (≈ 16 µg/mL); in [6], 5.42 µM (≈ 16 µg/mL); in [7], 2.71 µM (≈ 8 µg/mL); in experiment [8], 2.71 µM (≈ 8 µg/mL); in [9], 2.71 µM (≈ 8 µg/mL).

As for `CC(C)C[C@H](NC(=O)[C@H](CO)NC(=O)[C@H](CC(C)C)NC(=O)[C@H](Cc1ccccc1)NC(=O)[C@@H](NC(=O)[C@H](CO)NC(=O)[C@H](CO)NC(=O)[C@H](CCCN=C(N)N)NC(=O)[C@H](Cc1ccccc1)NC(=O)[C@@H](NC(=O)[C@@H](NC(=O)[C@@H]1CCCN1C(=O)[C@H](CO)NC(=O)[C@H](C)N)[C@@H](C)O)C(C)C)C(C)C)C(=O)N[C@@H](Cc1ccccc1)C(=O)N[C@H](C(=O)N[C@H](C(=O)N[C@@H](C)C(=O)N[C@@H](CCCCN)C(=O)N[C@@H](CCCCN)C(=O)O)C(C)C)C(C)C` [ASPTVFRSSVFLSLFVVAKK], the MIC with Escherichia coli is over 117 µM; in the experiment on Bacillus cereus it was at least 117 µM; with Staphylococcus aureus, over 117 µM; with Bacillus anthracis, at least 117 µM.

`CC(C)C[C@H](NC(=O)CNC(=O)[C@H](Cc1ccccc1)NC(=O)[C@H](CC(C)C)NC(=O)[C@@H](N)Cc1ccccc1)C(=O)N[C@@H](C)C(=O)N[C@@H](CO)C(=O)N[C@@H](CCCCN)C(=O)N[C@H](C(=O)N[C@@H](Cc1ccccc1)C(=O)N1CCC[C@H]1C(=O)N[C@@H](C)C(=O)N[C@H](C(=O)N[C@@H](Cc1ccc(O)cc1)C(=O)N[C@@H](CS)C(=O)N[C@@H](CCCCN)C(=O)N[C@H](C(=O)N[C@H](C(=O)N[C@@H](CCCN=C(N)N)C(=O)N[C@@H](CCCCN)C(=O)O)[C@@H](C)O)C(C)C)C(C)C)C(C)C` [FLFGLASKVFPAVYCKVTRK]: the MIC against Escherichia coli is 28.1 µM (≈ 64 µg/mL); in the experiment on Bacillus cereus, at least 113 µM; with Staphylococcus aureus, 113 µM (≈ 256 µg/mL); with Bacillus anthracis, at least 56.3 µM.

Consider `CC[C@H](C)[C@H](NC(=O)[C@H](CC(C)C)NC(=O)[C@H](C)NC(=O)[C@@H]1CCCN1C(=O)[C@H](Cc1ccccc1)NC(=O)[C@@H](NC(=O)[C@H](CCCCN)NC(=O)[C@H](CO)NC(=O)[C@H](C)NC(=O)[C@@H](NC(=O)[C@H](CCCN=C(N)N)NC(=O)[C@H](Cc1ccccc1)NC(=O)[C@H](CC(C)C)NC(=O)[C@@H](N)Cc1ccccc1)C(C)C)C(C)C)C(=O)NCC(=O)N[C@@H](CCCCN)C(=O)N[C@@H](Cc1ccccc1)C(=O)N[C@@H](CCCCN)C(=O)N[C@@H](CCCCN)C(=O)N[C@@H](CCCCN)C(=O)O` [FLFRVASKVFPALIGKFKKK], for which the MIC was found to be 27.5 µM (≈ 64 µg/mL) against Escherichia coli, 6.88 µM (≈ 16 µg/mL) against Bacillus cereus, 6.88 µM (≈ 16 µg/mL) against Staphylococcus aureus and 6.88 µM (≈ 16 µg/mL) against Bacillus anthracis.

As for `CC(C)C[C@H](NC(=O)[C@H](CCCN=C(N)N)NC(=O)[C@H](CC(N)=O)NC(=O)[C@H](CC(C)C)NC(=O)[C@@H](N)CCCCN)C(=O)N[C@@H](CCCCN)C(=O)N[C@@H](CCC(=O)O)C(=O)N[C@@H](CCCCN)C(=O)N[C@@H](CC(N)=O)C(=O)N[C@@H](CCCCN)C(=O)N[C@@H](C)C(=O)N[C@@H](CCCCN)C(=O)N[C@@H](CC(N)=O)C(=O)N[C@@H](CO)C(=O)N[C@@H](CCCCN)C(=O)N[C@@H](CCC(=O)O)C(=O)N[C@@H](CC(N)=O)C(=O)N[C@@H](CC(N)=O)C(=O)O` [KLNRLKEKNKAKNSKENN], the MIC in experiment [4] is at least 237 µM; in experiment [5], over 237 µM; in experiment [7], at least 237 µM; in [9], at least 237 µM.

Turning to `CC[C@H](C)[C@H](NC(=O)[C@H](CCCN=C(N)N)NC(=O)[C@H](C)NC(=O)[C@H](CCCCN)NC(=O)[C@H](CCCCN)NC(=O)CNC(=O)[C@H](Cc1ccccc1)NC(=O)[C@H](CCCCN)NC(=O)[C@H](CCCN=C(N)N)NC(=O)[C@H](CC(C)C)NC(=O)[C@H](CCC(=O)O)NC(=O)[C@H](CCC(=O)O)NC(=O)[C@H](CCCCN)NC(=O)[C@H](CC(C)C)NC(=O)[C@H](Cc1ccc(O)cc1)NC(=O)[C@H](CC(C)C)NC(=O)[C@@H](NC(=O)[C@H](CC(C)C)NC(=O)[C@H](C)NC(=O)[C@H](CCC(N)=O)NC(=O)[C@H](CCCN=C(N)N)NC(=O)CNC(=O)[C@@H](N)Cc1c[nH]c2ccccc12)[C@@H](C)O)C(=O)N[C@@H](C)C(=O)N[C@@H](Cc1c[nH]c2ccccc12)C(=O)O` [WGRQALTLYLKEELRKFGKKARIAW], the MIC is over 128 µM in experiment [1], 16 µM (≈ 49 µg/mL) in the experiment on Escherichia coli BL21 and 0.25 µM (≈ 0.766 µg/mL) in experiment [2].

(Values after DBAASP.)
